Here are results for three compounds from patent publication US10767160B2, “Methods for modulating production profiles of recombinant proteins” (ARES TRADING S.A., priority 2015, dated 2020).

The cell viability is a per cent measure of how many cells are alive, often set against a control.

Where two headings read alike, the source gives them in different places.

The test system of data set [1] is CHO-S cells expressing IgG1 mAb1. As to the kind of experiment: Fed-batch culture in Spin Tubes, host cells expressing mAb1. It counts as cell-based, Chinese Hamster. Here is the method:
(§1) Assays were performed with 2 CHO cell lines: • CHO-S cells expressing IgG1 mAb1, herein “Cells mAb1” or “mAb1 cells”. “mAb1” is a fully human monoclonal antibody directed against a soluble protein. Its isoelectric point (pI) is about 8.20-8.30. • CHO-K1 cells expressing IgG1 mAb2, herein “Cells mAb2” or “mAb2 cells”. “mAb2” is a humanised monoclonal antibody directed against a receptor found on the cell membrane. Its isoelectric point (pI) is about 9.30. 2) Cell Expansion
(§2) Cells expressing mAb2 were inoculated at 0.2×10^6 cells per millilitre (mL), whereas cells expressing mAb1 were inoculated at 0.3×10^6 cells per mL.
(§3) All assays were performed in fed-batch culture. The host cells were cultured in fed-batch system either in microplates (“Deep well plate”) or in Spin Tubes®, and incubated at 36.5° C., 90% relative humidity, 5% CO2 and 320 rpm shaking during 14 days.
(§4) Viable cell density and viability were measured with the Guava easyCyte® flow cytometer or with the ViCell.
(§5) Antibody titres were measured with the fortêBIO Octet® or with Biacore C®.
(§6) Glycosylation profiles were established by capillary gel electrophoresis with laser-induced fluorescence (CGE-LIF). Dosages of aggregates and fragments were performed respectively via Size Exclusion High Performance Liquid Chromatography (SE-HPLC) and SDS-capillary gel electrophoresis.

For data set [2], the system named is CHO-K1 cells expressing IgG1 mAb2. It counts as cell-based, Chinese Hamster. Here is the method:
as §1, §2, §3, §4, §5, §6

Data set [3] deals with CHO-S cells expressing IgG1 mAb1. Put plainly: Fed-batch culture in microplates, host cells expressing mAb1. Format: cell-based, Chinese Hamster. The method, then:
as §1, §2, §3, §4, §5, §6

For data set [4], the system named is recombinant CHO cells. The following applies: batch culture, end of production run, after 8 days of culture; cited from earlier work.
Data set [5] relates to recombinant CHO cells. Particulars: perfusion batch culture, within 6 days of treatment; cited from earlier work.
The mark [6] stands for this setting: similar concentrations (8.5 μM), Spin tubes.
[7] abbreviates: about 167 μM or about 417 μM, microplates.
Where [8] appears, read: up to 25 μM and 41.7 μM, microplates.
The mark [9] stands for this setting: about 4.3 and/or about 8.5 μM, Spin Tubes.
Where [10] appears, read: about 0.4 μM to about 17 μM, microplates.
The mark [11] stands for this setting: about 83 μM to about 833 μM, microplates.

Take `Nc1c(S(=O)(=O)O)cc(Nc2ccc(Nc3nc(Cl)nc(Nc4ccccc4S(=O)(=O)O)n3)c(S(=O)(=O)O)c2)c2c1C(=O)c1ccccc1C2=O` [Cibacron Blue 3GA]: in data set [1] (8.5 μM, Spin tubes), the specific productivity entry was “significantly increased” and the “titre increase at the end of the culture” value was found to be 1.25 factor. In addition, in data set [1] (8.5 μM, days 6-9, Spin tubes), the “maximum density of viable cells” value is given as “increased”. Further, the “viability compared to control” value in data set [1] (8.5 μM, starting on day 7, Spin tubes) is given as “decrease of viability”. For the same compound, in data set [2] (setting [6]), the “productivity of antibodies mAb2” value is reported as “increased” and the “titre multiplied at the end of cell culture” value was determined as 1.2. For the same compound, the titre result in data set [3] (about 83 μM, microplates) is reported as “still significantly increased”. Moreover, in data set [3] (setting [7]), the cell viability entry was “decreased” and the titre entry was “impact on the titre was observed”. Further, the “quantity of secreted recombinant protein (titre) compared to control” value in data set [3] (about 8.3 to about 41.7 μM, microplates) was found to be 1.5 fold. For the same compound, in data set [3] (setting [8]), the titre entry was “increased significantly” and the viable cell density result was “increased significantly”.
`O=S(=O)(O)c1cc(Nc2nc(Cl)nc(Nc3ccc(Nc4nc(Cl)nc(Nc5cc(S(=O)(=O)O)cc6cc(S(=O)(=O)O)c(N=Nc7ccccc7S(=O)(=O)O)c(O)c56)n4)cc3)n2)c2c(O)c(N=Nc3ccccc3S(=O)(=O)O)c(S(=O)(=O)O)cc2c1` [Reactive Red 120] returned a titre increase in data set [1] (8.6 μM, Spin Tubes) of 1.2 factor. Also, the “cell viability compared to control” value in data set [1] (about 4.3 and/or about 8.5 μM, after day 10, Spin Tubes) is “only slightly affected”. In addition, in data set [1] (about 4.3 and/or about 8.5 μM, days 5-9, Spin Tubes), the viable cell density entry was “increased”. Also, in data set [2] (setting [9]), the specific productivity entry was “increase” and the titre entry was “increase”. Besides, the “viability compared to control” value in data set [2] (until the end of the culture, Spin Tubes) is listed as “maintained”. For the same compound, the “viable cell density increase compared to control” value in data set [3] (17.3 μM, day 7, microplates) is given as 1.5 factor. For the same compound, the “titre increase compared to control” value in data set [3] (17.3 μM, day 14, microplates) stood at 1.3 factor. In data set [3] (83 μM, microplates), the “maximum titre relative to control cells” value was found to be 1.2 fold. Besides, in data set [3] (setting [10]), the cell viability entry is given as “(slightly) reduced”, the titre result is “increased significantly” and the viable cell density entry was “increased significantly”. Besides, the toxicity limit result in data set [3] (about 17 μM, microplates) was “did not seem to have been reached”. In data set [3] (setting [11]), the cell viability result is “decrease significantly”, the titre entry is “remained superior or equal to what was obtained with control cells” and the viable cell density result is “decrease significantly”. Besides, the toxicity result in data set [3] (above 83 μM, microplates) was “becomes toxic”.
For `CCCC(=O)[O-].[Na+]` [sodium butyrate], the cell viability entry in the data set on recombinant CHO cells [4] is “less than 45%”; with recombinant CHO cells [5], 15%.
